Measured values reported in patent US20170314007A1, “MEDICAMENT DESIGN POCKET OF ORNITHINE DECARBOXYLASE AND APPLICATION OF MEDICAMENT DESIGN POCKET” (CHINA THREE GORGES UNIVERSITY, priority 2014, published 2017).

Biological target: T1, human ODC (Homo sapiens, UniProt P11926)
T1 construct: His tag (from pET28a); made in house; host or cells: Escherichia coli BL21
T1 sequence (P11926 1-461): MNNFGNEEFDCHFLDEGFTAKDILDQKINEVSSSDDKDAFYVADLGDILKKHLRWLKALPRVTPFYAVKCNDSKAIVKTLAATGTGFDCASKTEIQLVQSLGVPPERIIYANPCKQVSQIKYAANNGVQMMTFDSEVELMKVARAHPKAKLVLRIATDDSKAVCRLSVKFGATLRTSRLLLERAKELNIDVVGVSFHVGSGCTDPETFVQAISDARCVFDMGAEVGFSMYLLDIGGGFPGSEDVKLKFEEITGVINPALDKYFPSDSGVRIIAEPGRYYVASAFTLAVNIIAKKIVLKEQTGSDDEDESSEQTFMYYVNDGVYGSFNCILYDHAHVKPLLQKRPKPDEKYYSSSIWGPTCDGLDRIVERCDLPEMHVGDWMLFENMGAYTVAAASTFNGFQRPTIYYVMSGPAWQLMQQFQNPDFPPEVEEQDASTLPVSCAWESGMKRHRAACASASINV
Assay: Detection of inhibitory activity of inhibitor for human ODC protein (absorbance at 426 nm, ODC inhibition ratio)
Format: biochemical
Conditions: for inhibitory capacity on human ODC compared with DFMO: 1 mM of the medicament, comparison of histograms with DFMO inhibitor
Protocol: 400 uL substrate reaction mixture and 50 ug ODC protein are added to EP tube, mixed evenly, and the EP tube is placed in 37° C. water bath for 30 min; 400 uL 10% TDA is added to terminate the reaction, centrifuged 5 min at 5000 rpm at room temperature, then 100 uL supernatant is fetched and mixed with 200 uL of 4 mol/L NaOH, 400 uL of n-amyl alcohol is added to mix well, centrifuged 5min at 2000 rpm, then 200 uL of the supernatant is transferred to a new EP tube, and 200 uL of 0.1 mol/L sodium tetraborate (pH 8.0) is added to mix evenly, and 200 uL of 10 mmol/L trinitrobenzene sulfonic acid is added to mix fully, and then 400 uL DMSO is added to fix fully for 1 min, centrifuged 5 min at 3000 rpm; finally the supernatant is fetched to 96-well plate and its absorbance at 426 nm is detected by a microplate reader, to get the OD value with out adding […];
According to the method described in step 4), after adding 400 μL substrate reaction mixture, the ODC inhibitor is added immediately, and subsequent procedures are the same as the step 4);
The ODC inhibition ratio is calculated according to the following formula;
Control difference=the mean OD value of the control group adding the inhibitor−the mean OD value of the control group without adding inhibitor, of which, the inhibitor added in step 5) in the control group is DFMO inhibitor;
Experimental difference= the mean OD value of the experiment group adding the inhibitor−the mean OD value of the experiment group without adding inhibitor.
ODC inhibition ratio=[(control difference-experimental difference)/control difference]×100%.
The substrate reaction mixture in step 4): dissolve 17.57 ul β-mercaptoethanol, 55.84mg of 1.5 mM EDTA disodium salt, 75 nM PLP stock solution and 2 mM ornithine hydrochloride in 150 mM PBS (pH 7.1).
400 uL substrate reaction mixture (17.57 ul of β-mercaptoethanol, 55.84 mg of 1.5 mM EDTA disodium salt, 75 nM PLP stock solution, 2 mM ornithine hydrochloride are dissolved in 150 mM PBS (pH 7.1)) and 50 ug ODC protein are added to a 1.5 mL of EP tube, mixed evenly, and the EP tube is placed in 37° C water bath for 30 min; 400 uL 10% TDA is added to terminate the reaction, centrifuged 5 min at 5000 rpm at room temperature, then 100 uL supernatant is fetched and mixed with 200 uL of 4 mol/L NaOH, 400 uL of n-amyl alcohol is added to mix well, centrifuged 5 min at 2000 rpm then 200 uL of the supernatant is transferred to a new EP tube, and 200 uL of sodium tetraborate (0.1 mol/L, pH 8.0) is added to mix evenly, and 200 uL of 10 mmol/L trinitrobenzene sulfonic acid is added to mix fully, and then 400 uL DMSO is added to fix fully for 1 min, centrifuged 5 min at 3000 rpm, finally the supernatant is fetched to 96-well plate and its absorbance at 426 nm is detected by a microplate reader. […]

Row | inhibitory capacity on human ODC compared with DFMO | SMILES | also measured
1 |  | N#Cc1ccc(C2Nc3cccc4cccc(c34)N2)cc1 | inhibitory activity on human ODC (concentration range 1 nM-5 mM, histogram FIG. 5): has the ability to inhibit human ODC activity within the range of 1 nM-5 mM, and the higher the concentration, the stronger tire inhibitory ability
2 |  | CN(C)c1ccc(/C=N/Nc2nc(N)nc(N)n2)cc1 [4-(dimethylamino)-benzaldehyde-(4,6-diamino-1,3,5) triazine] | inhibitory activity on human ODC (concentration range 1 nM-1 mM, histogram FIG. 9, compared with DFMO): has inhibitory effect on human ODC activity within the concentration range of 1 nM-1 mM
3 | equivalent to that of 2.5 mM DFMO | COc1ccc(C(=O)C[n+]2ccccc2/C=N/[O-])cc1 [D19, 2-[(hydroxyimino)methyl]-1-[2-(4-methoxyphenyl)-2-oxoethyl] pyridinium] | 
4 | equivalent to that of 2.5 mM DFMO | CCOC(=O)c1cccc(NC(=O)c2ccccc2)c1 [D17, ethyl-3-(benzoylamino) methyl benzoate] | 
